Results as given in US5047340A, “LAC+ saccharomyces cerevisiae” (The University of Kentucky Research Foundation, priority 1988, dated 1991).
Where “and” joins values, the source holds several entries; their conditions need not be identical. Equal values may be shown once.

Legend:
[1] = test system: lactose transport in S. cerevisiae L1582/pKR1B-LAC4-1; assay: Lactose transport ([14C]lactose uptake) in Lac+ S. cerevisiae; format: cell-based; details: for inhibition of lactose transport (stereospecificity, in words): summary of Table 1 (L1582/pKR1B-LAC4-1 and K. lactis)
Procedure: The rate of lactose transport as a function of substrate concentration is shown for two experiments using Lac^+ L1582/pKR1B-LAC4-1 (.smallcircle.--.smallcircle.) and Lac^+ L1582/pKR1B-LAC4-Δ1087(.quadrature.--.quadrature.). For each concentration of lactose, the rate of transport represented the average of samples taken at 30, 60, and 90 seconds.
(§1) After warming the cells to 23° C. the competing compound was added to a final concentration of 50 mM. Thirty seconds later [^14 C] lactose was added to a final concentration of 1 mM and 100 μl samples were filtered 1 and 2 minutes later. […] For K. lactis the experiment was done twice and for S. cerevisiae it was done three times. Averaged values with or without a standard deviation are shown.
(§2) Finally, the lactose transport in LAC^+ S. cerevisiae was determined to be an energy-dependent process, as it is in K. lactis. To measure energy dependence, cells were pre-incubated for 20 minutes with 1 mM 2,4-dinitrophenol at ambient temperature.
(§3) The kinetics of lactose transport were measured to determine if Lac^+ S. cerevisiae transported measurable quantities of lactose and to determine the time scale over which the apparent initial velocity of transport could be measured. Lactose transport was measured using the following procedure. Saturated cultures of cells were obtained by growth at 30° C. in medium A: 10 g yeast extract, 20 g peptone, 100 ml of 20% lactic acid (titrated to pH 4.5 with solid sodium hydroxide) and 100 ml of 20% glycerol per liter, or medium B: 3.4 g yeast nitrogen base (Difco, without amino acids or ammonium sulfate), 10 g ammonium sulfate, 3 g 20 mg adenine, 20 mg uracil, 20 mg leucine, 20 mg histidine, 20 mg tryptophan, 20 mg methionine and 20 mg lysine per liter. Strain MS425/pKR1B of K. lactis was grown on medium A containing 10 μg G418/ml, while S. cerevisiae strains L1582/pKR1B, and YNN27/pKR1B were grown on the same medium containing 200 μg […] Strains L1582 or YNN27 transformed with either plasmid A, B, or C (autonomous or integrated) were grown on medium B.
(§4) This procedure is a modification of the procedure described by Serrano, R. (1977) European J. of Biochem. 80:97-10^2. To prepare cells for transport measurements, a saturated culture was diluted into fresh medium and grown from […]. Cells were harvested by filtration (45 mm dia, 0.45 μm Millipore type HA), washed four times with 10 ml of ice cold distilled water, and then resuspended in 100 mM tartaric acid (titrated to pH 4.2 with sodium hydroxide) at 60 to 100 A600 /ml. At this point cells could be stored at 4° C. for up to 24 hours without loss of transport activity.
(§5) To measure lactose transport, a sample of cells, 0.3 to 1.0 ml, was warmed to 23° C. for 2 min, lactose was added to the desired concentrations and at zero time 0.luCi of D-Glucose-[^14C ]lactose (CFA 278; 58 mCi/mM; Amersham Corp., Lexington, Mass.) was added per 0.3 ml of cells. At the indicated times 100 μl samples were filtered on 25 mm diameter Nuclepore filters (0.4μm pore size; Nuclepore Corp., Pleasanton, Cal.). The filter was washed twice with 5 ml of ice cold distilled water, dried and counted in 4 ml of a toluene-based cocktail containing 250 ml of triton X-100 and 6.5 g p-terphenyl per liter using a liquid scintillation counter. The specific activity, cpm/pmole of lactose, of each reaction was determined by counting a 10 μl sample. Data are expressed as pmoles of intracellular lactose per A600. Background transport was measured using cells that were heated for 3 min at 90° C. Typical background was 25 to 30 cpm.
The lactose transport in Lac^+ S. cerevisiae was determined to be an energy-dependent process, as it is in K. lactis. To measure energy dependence, cells were pre-incubated with 1 mM […] for 20 minutes at ambient temperature and then the uptake of 1 mM ^14 C-lactose was measured. […]

[2] = test system: lactose transport in K. lactis MS425/pKR1B; assay: Lactose transport ([14C]lactose uptake) in K. lactis; format: cell-based
Procedure: as §1, §2, §3, §4, §5
The lactose transport in Lac^+ S. cerevisiae was determined to be an energy-dependent process, as it is in K. lactis. To measure energy dependence, cells were pre-incubated with 1 mM […] for 20 minutes at ambient temperature and then the uptake of 1 mM ^14 C-lactose was measured. Lactose transport was inhibited 91% both in the Lac^+ strain of S. cerevisiae , L1582/pKR1B-LAC4-1, and in the K. lactis strain MS425/pKR1B.

[3] = pre-incubated 20 minutes with 1 mM at ambient temperature
[4] = Saccharomyces cerevisiae, competing compound 50 mM, [14C]lactose 1 mM, 23° C., samples at 1 and 2 minutes, average of three experiments with standard deviation
[5] = Kluyveromyces lactis, competing compound 50 mM, [14C]lactose 1 mM, 23° C., samples at 1 and 2 minutes, average of two experiments

Row | SMILES | inhibition of lactose transport (stereospecificity, in words) [1] | inhibition at 50000 µM [1, 4] | inhibition at 50000 µM [2, 5] | also measured
1 | O=[N+]([O-])c1ccc(O)c([N+](=O)[O-])c1 [2,4-dinitrophenol] | – | – | – | inhibition at 1000 µM ([1]; Saccharomyces cerevisiae, read-out: Lactose transport inhibited (energy dependence), S. cerevisiae L1582/pKR1B-LAC4-1): 91%; Lactose transport inhibition in words (energy dependence), S. cerevisiae L1582/pKR1B-LAC4-1 [1, 3]: inhibited almost completely; inhibition at 1000 µM ([2]; Kluyveromyces lactis, read-out: Lactose transport inhibited (energy dependence), K. lactis MS425/pKR1B): 91%; Lactose transport inhibition in words (energy dependence), K. lactis MS425/pKR1B [2, 3]: inhibited almost completely
2 | O=C[C@@H](O)[C@H](O[C@@H]1O[C@H](CO)[C@H](O)[C@H](O)[C@H]1O)[C@H](O)CO [3-0-β-D-galactosyl-D-arabinose] | strongest inhibition | – | – | % Inhibition of Lactose Transport, S. cerevisiae L1582/pKR1B-LAC4-1 ([1]; competing compound 50 mM, [14C]lactose 1 mM, 23° C., samples at 1 and 2 minutes, average of three experiments with standard deviation): 90 ± 6%; % Inhibition of Lactose Transport, K. lactis MS425/pKR1B ([2]; competing compound 50 mM, [14C]lactose 1 mM, 23° C., samples at 1 and 2 minutes, average of two experiments): 93%
3 | O=[N+]([O-])c1ccc(O[C@H]2O[C@H](CO)[C@H](O)[C@H](O)[C@H]2O)cc1 [4-nitrophenyl-α-D-galactoside] | inhibited only weakly | – | – | –
4 | OC[C@H]1O[C@H](OC[C@H]2OC(O)[C@H](O)[C@@H](O)[C@@H]2O)[C@H](O)[C@@H](O)[C@H]1O (stereo partly drawn) [6-0-α-D-galactosyl-D-glucose] | inhibited only weakly | 10.7 ± 8% | 10% | –
5 | O=C[C@H](O)[C@@H](O)[C@@H](O)[C@H](O)CO [D-galactose] | only moderate inhibition | 24.3 ± 7.2% | 26% | –
6 | OC[C@H]1O[C@@H](S[C@@H]2O[C@H](CO)[C@H](O)[C@H](O)[C@H]2O)[C@H](O)[C@@H](O)[C@H]1O [D-galactosyl-1-thio-β-D-galactoside] | only moderate inhibition | 4.9 ± 4% | 28% | –
7 | OC[C@H]1O[C@@H](O[C@H]2[C@H](O)[C@@H](O)C(O)O[C@@H]2CO)[C@H](O)[C@@H](O)[C@H]1O (stereo partly drawn) [lactose, 4-0-beta-D-galactosyl-D-glucose] | – | – | – | Km ([1]; two experiments of FIG. 4: Lac+ L1582/pKR1B-LAC4-1 and Lac+ L1582/pKR1B-LAC4-Δ1087, rates averaged from 30, 60 and 90 seconds, read-out: apparent Km for lactose transport, Lac+ S. cerevisiae): 970 µM and 1090 µM; Km ([2]; K. lactis strain MS425, read-out: apparent Km for lactose transport, K. lactis strain MS425): 670 µM
